Test results taken from patent US11684660B2, “Human PD1 peptide vaccines and uses thereof” (OHIO STATE INNOVATION FOUNDATION, priority 2017, dated 2023).
No end group written: not given here.

Experiments:
[1] = system: Nivolumab; experiment: BIACORE SPR binding to immobilized Nivolumab; details: 1 μM peptide; for SPR response of peptide binding to immobilized Nivolumab: 1 min at 10 μl/min
Description: (§1) 1 μM BSA was used as the negative control. The chip was regenerated by 10 mM Glycine-HCl, pH 2.5(FIG. 3E).
(§2) 1 μM of various PD-1 peptides were injected over the chip for 1 min at 10 μl/min followed by 1 min dissociation and then 1 min regeneration with 10 mM Glycine-HCl, pH 2.5 for each run.

[2] = target: T1, extracellular domain of human PD-L1 (hPD-L1) (Homo sapiens, UniProt Q9NZQ7); experiment: BIACORE SPR binding to immobilized rhPD-L1; details: 1 μM peptide; for SPR response of peptide binding to immobilized rhPD-L1: 1 min at 10 μl/min
T1 construct: Recombinant hPD-L1 ectodomain was immobilized onto the gold surface of a CM5 sensor chip
Description: To test the activity of all the selected peptides, surface plasmon resonance (SPR) spectroscopy (BIACORE™ T200, at […]) was used to measure their binding affinities to the extracellular domain of human PD-L1 (hPD-L1). Recombinant hPD-L1 ectodomain was immobilized onto the gold surface of a CM5 sensor chip by direct amine coupling.
as §1, §2

[3] = system: murine colon carcinoma CT26 tumor cells; experiment: CT26 tumor challenge in Balb/c mice immunized with PD-1 constructs; type: in vivo; details: for inhibition of tumor growth: Day 14, FIG. 15; for median terminal tumor weight: end of study; for median terminal tumor weight / median tumor size LWH, Day 19 / median tumor size LWW, Day 19 / median tumor size LWH, Day 14 / median tumor size LWW, Day 14: 5 mice/group; for difference in tumor size distribution versus controls: exact Wilcoxon rank-sum test, two-sided, unadjusted; for median tumor size LWH, Day 14: ½*length*width*height; for median tumor size LWW, Day 14: ½*length*width*width
Description: Immunocompetent Balb/c mice of 6-8 weeks of age were purchased from Charles River Laboratories, Wilmington, Mass. and housed in The Ohio State University's University Laboratory Animal Resources (ULAR) facilitates. Isoflurane was used to anaesthetize the animals before cells injection and termination. Pre-immune sera samples were taken from the mice then they were immunized with 100 μg of peptide emulsified in Montanide ISA 720 (Seppic, Paris, France) and nor-MDP adjuvant (N-acetyl-glucosamine-3 yl-acetyl L-alanyl-D-isoglutamine). Mice received booster immunizations 3 and 6 weeks after the first. Several test sera samples were taken from the mice (FIG. 8).
10 days after the second boost, mice were inoculated with […] murine colon carcinoma CT26 tumor cells subcutaneous on the right flank. Tumor growth was monitored three times a week and sera samples were taken weekly and upon sacrifice of the animal. Control mice on day 0 were engrated with 1×10^5 CT26 tumor cells subcutaneous and received. The animals received 150 μg injections of anti-mouse antibodies directed against PD-1. Mice were monitored and scored for the formation of palpable tumors twice weekly and sacrificed if tumors became necrotic or exceeded the predetermined size of 2,000 mm3. Tumor diameters were measured twice a week. Tumor size was calculated according to the formula: V=[(length ×width2)/2]. Tumor volumes were measured in cubic millimeters with calipers and calculated with the following formula: A×B2×0.5, where A is the largest diameter, and B is the smallest diameter. All experiments were performed in accordance with the U.S. Public Health Service Policy on Humane Care and Use of Laboratory Animals and approved by the Ohio State University Institutional Animals Care and Use Committee and detailed in the accepted protocol
To assess performance of 4 different vaccine treatments on tumor growth, tumor size was measured periodically in mice, and the results were compared to those of positive and negative controls. There were 5 mice in each treatment group, each receiving the assigned MVF-peptide and then being inoculated with 1e5 CT26 (colon) tumor cells 10 days after the final boost of the treatment. Day 14 was considered the primary time point of interest, as the investigators believed waiting until day 19 allowed the tumors too much time to grow, resulting in similar sizes at that point of the experiment. Tumor size was measured in three ways: LWW (½*length*width*width) at all time points, LWH (½*length*width*height) at all time points, and terminal tumor weight at the end of the study. The mice treated with MVF-PD-a(45), group C, were sacrificed before day 19 due to the death of one mouse, so the comparisons can only be made between tumor size at day 14. Tumor size is in units of mm3 for LWW and LWH and grams for terminal tumor weight.
Due to small sample sizes in each group and inability to assume normality, the exact Wilcoxon rank-sum test was used to check for systematic differences between the distributions of tumor size at times 14 days and 19 days (FIGS. 12A-D and Tables 7-10). P-values given are for test comparing that column's control to the respective treatment, and are two-sided to account for the possibility of tumor size being systematically larger or smaller between treatment and control. As this is preliminary data, the p-values are not adjusted for multiple comparisons. Overall, there were few instances of significant differences between the distributions of a control and a treatment.
Immunocompetent Balb/c mice (5 mice/gp) of 6-8 weeks of age were immunized with 100 μg of peptide emulsified in Montanide ISA 720 (Seppic, Paris, France) and nor-MDP adjuvant (N-acetyl-glucosamine-3 yl-acetyl L-alanyl-D-isoglutamine). […]

[4] = system: CD4+CD25+FoxP3+ Tregs; experiment: Immune-profiling of T cells in spleen and tumor by flow cytometry; type: in vivo, Balb/c mice
Description: CD4 and CD8 cells were determined by flow cytometry (gated on CD45+CD3+ cells). Foxp3+CD25+CD4 T regulatory cells were determined by intracellular staining. All CD4 and CD8 T cells were gated on CD45+CD3+ cells. Tregs were gated on CD45+CD3+CD4+ cells. Group A=control peptide, Group B=32-50; Group C=45-64; Group D=73-90; Group E=92-110; Group F=α-mouse PD-1 (positive control).
The tumor and tumor draining lymph nodes were collected for subsequent FACS analysis to study the immune response in mice. Cells suspensions were prepared from tissues either by mechanistic dissociation or by enzymatic digestion. The stained cells were analyzed with a LSR II flow cytometer (BD Biosciences) equipped with 3 excitation lasers at wavelengths 405, 488 and 633 nm. CD8+ T cells and CD4+CD25+ T cells from tumor leucocytes were purified either on a MACS column or FACSAria.
Flow cytometric analysis was performed to evaluate the expression of surface markers (CD45, CD3, CD4, CD8 and CD25) and transcription factor FoxP3 in splenocytes and tumor infiltrating T cells. Briefly, spleens were removed from mice and pressed through cell strainers, followed by a short incubation with red blood cells lysis buffer to lyse the red blood cells. Cells were then collected, washed, and resuspended in staining buffer (1% BSA in PBS). Similarly, tumors were removed from mice and pressed through cell strainers, followed by one wash with 37% percoll. The tumor cells were then washed with PBS and resuspended in staining buffer. The splenocytes and tumor cells were incubated with mAbs to the cell-surface markers for 30 min at 4° C. After washing twice with staining buffer, cells were fixed and permeabilized using Cytofix/Cytoperm solution for 60 min at 4° C. Cells were stained for FoxP3 for 30 min at 4° C. 80,000-100,000 live cell events were acquired on a FACSCanto (BD) and analyzed using FlowJo software (Tree Star, Inc.). To differentiate infiltrating cells from tumor cells, the tumor cells were first gated on CD45+ cells. Then the CD3+CD4+ and CD3+CD8+ cells were analyzed. Tregs were represented by CD4+CD25+FoxP3+ cells. […] Group E had the lowest Treg.

[5] = system: human IgG; experiment: BIACORE SPR binding to immobilized human IgG; details: 1 μM injected 3 min at 10 μl/min
Description: 126. […] 1 μM BSA was used as the negative control. The chip was regenerated by 10 mM Glycine-HCl, pH 2.5(FIG. 3E).

T1 sequence (Q9NZQ7 19-238 limits assumed): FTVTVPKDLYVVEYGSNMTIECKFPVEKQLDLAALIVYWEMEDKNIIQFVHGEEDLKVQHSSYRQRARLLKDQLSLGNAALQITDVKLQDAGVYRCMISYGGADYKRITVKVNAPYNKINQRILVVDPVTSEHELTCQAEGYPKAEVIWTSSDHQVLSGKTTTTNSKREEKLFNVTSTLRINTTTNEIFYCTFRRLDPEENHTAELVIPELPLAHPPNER

| Substance | binding to immobilized Nivolumab (in words) [1] | binding to immobilized rhPD-L1 (in words) [2] | difference in tumor size distribution versus controls [3] | median tumor size LWH, Day 14 [3] | median tumor size LWW, Day 14 [3] | also measured |
| --- | --- | --- | --- | --- | --- | --- |
| CH3CONH-DFHMSVVRARRNDSGTYL-CONH2 (Ac-DFHMSVVRARRNDSGTYL-NH2) [AC-PD-1 (73-90)] | bind | bind |  |  |  |  |
| CH3CONH-GAISLAPKAQIKESLRAEL-CONH2 (Ac-GAISLAPKAQIKESLRAEL-NH2) [AC-PD-1 (92-110)] | bind | bind |  |  |  |  |
| CH3CONH-KLAAFPEDRSQPGQDCRFR-CONH2 (Ac-KLAAFPEDRSQPGQDCRFR-NH2) [AC-PD-1 (45-64)] | bind | bind |  |  |  |  |
| H2N-DFHMSVVRARRNDSGTYL-CONH2 (H-DFHMSVVRARRNDSGTYL-NH2) [PD-1 (73-90)] | much stronger binding | much stronger binding |  |  |  |  |
| H2N-KLAAFPEDRSQPGQDCRFR-CONH2 (H-KLAAFPEDRSQPGQDCRFR-NH2) [PD-1 (45-64)] | second stronger binder | second stronger binder |  |  |  |  |
| KLLSLIKGVIVHRLEGVE-GPSL-DFHMSVVRARRNDSGTYL-CONH2 (KLLSLIKGVIVHRLEGVEGPSLDFHMSVVRARRNDSGTYL-NH2) [MVF-PD-1 (73-90)] | bind | bind | no significant differences | 346.5 mm3 | 405 mm3 | inhibition of tumor growth [3]: not inhibitory; median terminal tumor weight [3]: 0.93 grams; median tumor size LWH, Day 19 [3]: 768 mm3; median tumor size LWW, Day 19 [3]: 968 mm3; SPR response of peptide binding to immobilized Nivolumab [1]: 1000 RU; SPR response of peptide binding to immobilized rhPD-L1 [2]: around 110 RU |
| KLLSLIKGVIVHRLEGVE-GPSL-KLAAFPEDRSQPGQDCRFR-CONH2 (KLLSLIKGVIVHRLEGVEGPSLKLAAFPEDRSQPGQDCRFR-NH2) [MVF-PD-1 (45-64)] |  | bind | no significant differences | 448 mm3 | 550 mm3 | inhibition of tumor growth [3]: not inhibitory; SPR response of peptide binding to immobilized rhPD-L1 [2]: around 110 RU; Treg population in spleen compared to Group A (negative control) ([4]; splenocytes, FIG. 10A): increased Treg population; Tregs in tumor ([4]; tumor infiltrating cells, FIG. 10B): increased Treg development in tumor microenvironment |
| KLLSLIKGVIVHRLEGVE-GPSL-VLNWYRMSPSNQTDKLAAF-CONH2 (KLLSLIKGVIVHRLEGVEGPSLVLNWYRMSPSNQTDKLAAF-NH2) [MVF-PD-1 (32-50)] |  |  | no significant differences | 420 mm3 | 486 mm3 | median terminal tumor weight [3]: 0.92 grams; median tumor size LWH, Day 19 [3]: 900 mm3; median tumor size LWW, Day 19 [3]: 1080 mm3; SPR response of peptide binding to immobilized Nivolumab [1]: 20 RU |
| rhPD-1: recombinant human PD-1 (hPD-1) ectodomain used to validate the sensor chip |  |  |  |  |  | SPR response on immobilized human IgG (chip validation) [5]: didn't show any binding signal |
